Data as given in patent US10501460B2, “Heterocyclic compounds and uses thereof” (Plexxikon Inc., priority 2013, dated 2019).

How the values were obtained:
MV-4-11 = experiment: Oncology cell growth assay MV-4-11 (CellTiter Glo, 72 hours); type: cell-based; details: Homo sapiens, MV4-11, 72 h; MV-4-11 cell growth inhibitory activity, 3d
How it was run: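 MV-4-11 cells (MLL-AF4 AML) exposed 72 h to 8-point 1:3 titration, top final 10 μM, 0.2% DMSO. CellTiter Glo luminescence as cell-number readout, normalized to DMSO controls; pIC50 from four-parameter fit.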

bromodomain = experiment: Bromodomain cell assays of Example 40 (at least one of them); type: cell-based; details: in at least one of the bromodomain cell assays described in Example 40
How it was run: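 Growth inhibition: 3000 MV-4-11, MOLM-13, MM.1S or neuroblastoma cells/well got an 8-point 1:3 series from 10 μM top (0.2% DMSO) for 72 h, then CellTiter-Glo luminescence. Myc reporter: MV-4-11 with E-box firefly luciferase, 24 h exposure, One-Glo luminescence plus CellTiter-Fluo cell count. pIC50 from four-parameter fit.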

Row | SMILES | IC50 (MV-4-11) [µM] | IC50 (bromodomain) [µM]
1 | Cc1noc(C)c1-c1cnc2[nH]cc(C(c3ccc(F)cc3)C3CC3)c2c1 (stereo not shown) [P-0064, 4-[3-[cyclopropyl-(4-fluorophenyl)methyl]-1H-pyrrolo[2,3-b]pyridin-5-yl]-3,5-dimethyl-isoxazole] | ≤ 1 | < 10
2 | Cc1noc(C)c1-c1cnc2ccn(S(=O)(=O)C3CCCCC3)c2c1 [P-0066, 4-(1-cyclohexylsulfonylpyrrolo [3,2-b]pyridin-6-yl)-3,5-dimethyl-isoxazole] | ≤ 1 | < 10
3 | COC(c1cn(S(=O)(=O)C2CCCCC2)c2cc(-c3c(C)noc3C)cnc12)C1CC1 (stereo not shown) [P-0071, 4-[1-cyclohexylsulfonyl-3-[cyclopropyl(methoxy)methyl]pyrrolo[3,2-b]pyridin-6-yl]-3,5-dimethyl-isoxazole] | 1 to 10 | < 10
4 | COC(c1c[nH]c2ncc(-c3c(C)noc3C)cc12)C1CCC(F)(F)CC1 (stereo not shown) [P-0073, 4-[3-[(4,4-difluorocyclohexyl)-methoxy-methyl]-1H-pyrrolo[2,3-b]pyridin-5-yl]-3,5-dimethyl-isoxazole] | ≤ 1 | < 10
5 | Cc1noc(C)c1-c1cnc2c(CC3CC3)cn(S(=O)(=O)C3CCCCC3)c2c1 [P-0075, 4-[1-cyclohexylsulfonyl-3-(cyclopropylmethyl)pyrrolo [3,2-b]pyridin-6-yl]-3,5-dimethyl-isoxazole] | 1 to 10 | < 10
6 | Cc1noc(C)c1-c1cnc2c(I)cn(S(=O)(=O)c3ccccc3)c2c1 [P-0076, 4-[1-(benzenesulfonyl)-3-iodo-pyrrolo[3,2-b]pyridin-6-yl]-3,5-dimethyl-isoxazole] | ≤ 1 | < 10
7 | Cc1noc(C)c1-c1cnc2c(-c3ccccc3)cn(S(=O)(=O)c3ccccc3)c2c1 [P-0077, 4-[1-(benzenesulfonyl)-3-phenyl-pyrrolo[3,2-b]pyridin-6-yl]-3,5-dimethyl-isoxazole] | 1 to 10 | < 10
8 | CCS(=O)(=O)n1cc(C(OC)C2CCC(F)(F)CC2)c2cc(-c3c(C)noc3C)cnc21 (stereo not shown) [P-0078, 4-[3-[(4,4-difluorocyclohexyl)-methoxy-methyl]-1-ethylsulfonyl-pyrrolo[2,3-b]pyridin-5-yl]-3,5-dimethyl-isoxazole] | 1 to 10 | < 10
9 | Cc1noc(C)c1-c1cnc2c(-c3cccnc3)cn(S(=O)(=O)c3ccccc3)c2c1 [P-0084, 4-[1-(benzenesulfonyl)-3-(3-pyridyl)pyrrolo[3,2-b]pyridin-6-yl]-3,5-dimethyl-isoxazole] | ≤ 1 | < 10
10 | Cc1noc(C)c1-c1cnc2[nH]cc(C(c3ccc(F)cc3)(C3CC3)C3CC3)c2c1 [P-0085, 4-[3-[dicyclopropyl-(4-fluorophenyl)methyl]-1H-pyrrolo[2,3-b]pyridin-5-yl]-3,5-dimethyl-isoxazole] | 1 to 10 | < 10
11 | COC(c1c[nH]c2ncc(-c3c(C)noc3C)cc12)C1CCS(=O)(=O)CC1 (stereo not shown) [P-0089, 4-[[5-(3,5-dimethylisoxazol-4-yl)-1H-pyrrolo[2,3-b]pyridin-3-yl]-methoxy-methyl]thiane 1,1-dioxide] | 1 to 10 | < 10
12 | Cc1noc(C)c1-c1cnc2c(c1)c(C(O)C1CCSCC1)cn2S(=O)(=O)c1ccccc1 (stereo not shown) [P-0090, [1-(benzenesulfonyl)-5-(3,5-dimethylisoxazol-4-yl)pyrrolo[2,3-b]pyridin-3-yl]-tetrahydrothiopyran-4-yl-methanol] | 1 to 10 | < 10
13 | Cc1noc(C)c1-c1cnc2[nH]cc(CC3CCS(=O)(=O)CC3)c2c1 [P-0098, 4-[[5-(3,5-dimethylisoxazol-4-yl)-1H-pyrrolo[2,3-b]pyridin-3-yl]methyl]thiane 1,1-dioxide] | 1 to 10 | < 10
14 | Cc1noc(C)c1-c1cnc2c(-c3cnc(C4CC4)nc3)cn(S(=O)(=O)C3CCCC3)c2c1 [P-0103, 4-[1-cyclopentylsulfonyl-3-(2-cyclopropylpyrimidin-5-yl)pyrrolo[3,2-b]pyridin-6-yl]-3,5-dimethyl-isoxazole] | 1 to 10 | < 10
15 | COc1ncc(-c2cn(S(=O)(=O)c3ccccc3)c3cc(-c4c(C)noc4C)cnc23)cn1 [P-0104, 4-[1-(benzenesulfonyl)-3-(2-methoxypyrimidin-5-yl)pyrrolo[3,2-b]pyridin-6-yl]-3,5-dimethyl-isoxazole] | 1 to 10 | < 10
16 | COc1ncc(-c2cn(S(=O)(=O)C3CCCC3)c3cc(-c4c(C)noc4C)cnc23)cn1 [P-0105, 4-[1-cyclopentylsulfonyl-3-(2-methoxypyrimidin-5-yl)pyrrolo[3,2-b]pyridin-6-yl]-3,5-dimethyl-isoxazole] | 1 to 10 | < 10

Row | SMILES | IC50 (MV-4-11) [µM] | IC50 (bromodomain) [µM]
17 | Cc1noc(C)c1-c1cnc2c(c1)c(CC1CCN(C(=O)C(F)(F)F)CC1)cn2C [P-0106, 1-[4-[[5-(3,5-dimethylisoxazol-4-yl)-1-methyl-pyrrolo[2,3-b]pyridin-3-yl]methyl]-1-piperidyl]-2,2,2-trifluoro-ethanone] | ≤ 1 | < 10
18 | Cc1noc(C)c1-c1cnc2c(-c3cnn(C)c3)cn(S(=O)(=O)c3ccccc3)c2c1 [P-0110, 4-[1-(benzenesulfonyl)-3-(1-methylpyrazol-4-yl)pyrrolo[3,2-b]pyridin-6-yl]-3,5-dimethyl-isoxazole] | ≤ 1 | < 10
19 | CCCS(=O)(=O)n1cc(-c2cnn(C)c2)c2ncc(-c3c(C)noc3C)cc21 [P-0111, 3,5-dimethyl-4-[3-(1-methylpyrazol-4-yl)-1-propylsulfonyl-pyrrolo [3,2-b]pyridin-6-yl] isoxazole] | ≤ 1 | < 10
20 | Cc1noc(C)c1-c1cnc2c(-c3cnn(C)c3)cn(S(=O)(=O)C3CCCC3)c2c1 [P-0112, 4-[1-cyclopentylsulfonyl-3-(1-methylpyrazol-4-yl)pyrrolo[3,2-b]pyridin-6-yl]-3,5-dimethyl-isoxazole] | ≤ 1 | < 10
21 | Cc1noc(C)c1-c1cnc2c(c1)c(CC1CCN(S(=O)(=O)c3ccccc3)CC1)cn2C [P-0113, 4-[3-[[1-(benzenesulfonyl)-4-piperidyl]methyl]-1-methyl-pyrrolo[2,3-b]pyridin-5-yl]-3,5-dimethyl-isoxazole] | 1 to 10 | < 10
22 | Cc1noc(C)c1-c1cnc2c(c1)c(CC1CCN(C(=O)c3ccccc3)CC1)cn2C [P-0115, [4-[[5-(3,5-dimethylisoxazol-4-yl)-1-methyl-pyrrolo[2,3-b]pyridin-3-yl]methyl]-1-piperidyl]-phenyl-methanone] | ≤ 1 | < 10
23 | CCNC(=O)N1CCC(Cc2cn(C)c3ncc(-c4c(C)noc4C)cc23)CC1 [P-0117, 4-[[5-(3,5-dimethylisoxazol-4-yl)-1-methyl-pyrrolo[2,3-b]pyridin-3-yl]methyl]-N-ethyl-piperidine-1-carboxamide] | ≤ 1 | < 10
24 | CCC(c1cn(C)c2ncc(-c3c(C)noc3C)cc12)C1CCC(F)(F)CC1 (stereo not shown) [P-0118, 4-[3-[1-(4,4-difluorocyclohexyl)propyl]-1-methyl-pyrrolo[2,3-b]pyridin-5-yl]-3,5-dimethyl-isoxazole] | ≤ 1 | < 10
25 | CC(=O)N1CCC(Cc2cn(C)c3ncc(-c4c(C)noc4C)cc23)CC1 [P-0120, 1-[4-[[5-(3,5-dimethylisoxazol-4-yl)-1-methyl-pyrrolo[2,3-b]pyridin-3-yl]methyl]-1-piperidyl]ethanone] | 1 to 10 | < 10
26 | Cc1noc(C)c1-c1cnc2c(-c3cnn(C)c3)cn(S(=O)(=O)c3ccccc3F)c2c1 [P-0121, 4-[1-(2-fluorophenyl)sulfonyl-3-(1-methylpyrazol-4-yl)pyrrolo[3,2-b]pyridin-6-yl]-3,5-dimethyl-isoxazole] | ≤ 1 | < 10
27 | Cc1noc(C)c1-c1cnc2c(-c3cnn(C)c3)cn(S(=O)(=O)c3cccc(F)c3)c2c1 [P-0122, 4-[1-(3-fluorophenyl)sulfonyl-3-(1-methylpyrazol-4-yl)pyrrolo[3,2-b]pyridin-6-yl]-3,5-dimethyl-isoxazole] | ≤ 1 | < 10
28 | Cc1noc(C)c1-c1cnc2c(-c3cnn(C)c3)cn(S(=O)(=O)c3ccc(F)cc3)c2c1 [P-0123, 4-[1-(4-fluorophenyl)sulfonyl-3-(1-methylpyrazol-4-yl)pyrrolo[3,2-b]pyridin-6-yl]-3,5-dimethyl-isoxazole] | ≤ 1 | < 10
29 | CCn1cc(-c2cn(S(=O)(=O)c3ccccc3F)c3cc(-c4c(C)noc4C)cnc23)cn1 [P-0125, 4-[3-(1-ethylpyrazol-4-yl)-1-(2-fluorophenyl)sulfonyl-pyrrolo[3,2-b]pyridin-6-yl]-3,5-dimethyl-isoxazole] | ≤ 1 | < 10
30 | C=CCn1cc(-c2cn(S(=O)(=O)c3ccccc3)c3cc(-c4c(C)noc4C)cnc23)cn1 [P-0126, 4-[3-(1-allylpyrazol-4-yl)-1-(benzenesulfonyl)pyrrolo [3,2-b]pyridin-6-yl]-3,5-dimethyl-isoxazole] | ≤ 1 | < 10
31 | C=CCn1cc(-c2cn(S(=O)(=O)c3ccccc3F)c3cc(-c4c(C)noc4C)cnc23)cn1 [P-0127, 4-[3-(1-allylpyrazol-4-yl)-1-(2-fluorophenyl)sulfonyl-pyrrolo[3,2-b]pyridin-6-yl]-3,5-dimethyl-isoxazole] | ≤ 1 | < 10
32 | C=CCn1cc(-c2cn(S(=O)(=O)C3CCCC3)c3cc(-c4c(C)noc4C)cnc23)cn1 [P-0128, 4-[3-(1-allylpyrazol-4-yl)-1-cyclopentylsulfonyl-pyrrolo [3,2-b]pyridin-6-yl]-3,5-dimethyl-isoxazole] | ≤ 1 | < 10
